According to US20230277553A1, “THERAPEUTIC COMPOSITION OF CURE-PRO COMPOUNDS FOR TARGETED DEGRADATION OF BET DOMAIN PROTEINS, AND METHODS OF MAKING AND USAGE” (CORNELL UNIVERSITY, priority 2020, published 2023):
“Also recorded” adds a separate entry of the source.

Experiments:
SLC19A1 = experiment: Suppression of c-MYC downstream target gene SLC19A1, RT-PCR (Cells-to-Ct), HeLa cells; format: cell-based, Human; settings: 24 h, 10 μM
Experimental: The suppression of the expression of the downstream c-MYC target, SLC19A1, was measured by RT-PCR using Power SYBR© Green Cells-to-Ct™ Kit (Life Technologies). Adherent cells were plated on 96 well plates at 5,000 cells per well were treated for 24h with monomer compounds and compounds capable of reversible interactions (1 nM-100 μM). Cells were subsequently washed in ice-cold PBS processed according to the manufacturer's instructions. Quantitative real-time PCR was performed using a ViiA™ 7 Real-time PCR System (Applied Biosystems, Foster City, Calif., USA). GAPDH and ACTB served as internal controls. The primers used were (5′-3′): GAPDH-F: AGCCACATCGCTCAGACAC (SEQ ID NO:9), GAPDH-R: GCCCAATACGACCAAATCC (SEQ ID NO:10), ACTB —F: CCAACCGCGAGAAGATGA (SEQ ID NO: 11), ACTB -R: […] (SEQ ID NO: 12), SLC19A1-F: […] (SEQ ID NO:13), SLC19A1-R: […] (SEQ ID NO: 14).
HeLa cells (1×104) were treated for 24 hours in 96 well plates with the compounds solubilized in DMSO. Compounds were added at 10 μM each and RNA expression measured by the Cells-to Ct method described above (Thermofisher). CURE-PRO-mediated suppression of the downstream target gene of c-MYC, SLC19A1, after BRD4 degradation was evident in cells treated with the combination of BRD-N25 and 8310 or 8312 (FIG. 66) and BRD-N39 and 8310 and 8312 (FIG. 67) as indicated by a rightward shift in the curve and in increase in the Ct values.

MV-4-11 cells = experiment: CellTiter-Glo cell viability, MV-4-11 cells; format: cell-based; settings: for Loss of cellular viability / toxicity, cotreated with cereblon ligands 8046, 8047 and 8066 vs monomers alone: MV-4-11, 72 hours, 1:1, 10 nM-100 μM each
Experimental: CellTiter-Glo® 2.0 Cell Viability Assay (Promega) was carried out following the manufacturer's recommendations. Cells were seeded at a density of 1000 cells/well in a white 96 well plates (Corning, #3917) in a total volume of 100 μl with respective monomers, combinations of BRD ligands together with E3 ligase ligands or vehicle control treatment. After a 72 h incubation, 100 ul of the CellTiter-Glo® substrate was added per well and luminescence was read on a Spectramax M5 (Molecular Devices). Dose-response curves were generated using Graphpad Prism software.
MV-4-11 cells (5×104) were treated for 24 hours with the sample compounds solubilized in DMSO. The compounds were added at 1 nM-100 μM each. Cellular viability was determined using the CellTiter-Glo® Luminescent Cell Viability Assay (Promega) described above. FIGS. 19-22 depict the CURE-PRO-mediated loss of cellular viability for BRD monomers (JQ1 derivatives comprising of catechol linkers), and CRBN ligand, 8049 (pomalidomide derivatives comprising boronic acid linkers) combined in a 1:1 ratio.
MV-4-11 cells (1×104) were treated for 72 hours with the compounds solubilized in DMSO. Compounds were added at 10 nM-100 μM each. Cellular viability was determined using the CellTiter-Glo® Luminescent Cell Viability Assay (Promega) described above. FIGS. 47-54 depict the CURE-PRO-mediated loss of cellular viability for BRD monomers (JQ1 derivatives comprising of boronic acid linkers), and CRBN ligands, 8046, 8047 and 8066 (pomalidomide derivatives comprising diol linkers) combined in a 1:1 ratio.

BRD4 [1] = target: T1, BRD4 (Homo sapiens, UniProt O60885); experiment: Summary of BRD4 degradation by CURE-PRO pairs, estimated from Western Blot or WES (Proteinsimple); format: cell-based; design: endogenous in cells; settings: for Degradation of BRD4 in combination with CRBN ligand [drawing 370]: aromatic 1,2-diol- or hindered cis-1,2-diol-containing CRBN ligand, first drawing (8046)
Description: A black check mark indicates efficacy of 30% to 70% or higher protein degradation.

BRD4 [2] = target: T1, BRD4; experiment: CURE-PRO-mediated BRD4 degradation, Western blot, HeLa cells; format: cell-based; design: endogenous in cells; host or cells: HeLa; settings: for BRD4 degradation, co-treatment with CRBN ligand 8046: 1:1 with 8046, 10 μM each
Outline: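 HeLa cells treated 24 h with compounds in DMSO (1-10 μM, 10 μM or 100 μM each; paired monomers combined 1:1), optional 15-min pretreatment with pomalidomide, VHL298, Nutlin3a (10 μM) or MG-132/carfilzomib (1 μM). RIPA lysates, 10-20 μg protein immunoblotted for BRD4 with β-actin, ECL detection.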

BRD4 [3] = target: T1, BRD4; experiment: CURE-PRO-mediated BRD4 degradation, WES (ProteinSimple), HeLa cells; format: cell-based; design: endogenous in cells; host or cells: HeLa; settings: 24 h, tested 100 nM-10 μM each
Experimental: All cell lines were purchased from ATCC or DSMZ and grown at 37° C. with 5% CO2. Human HeLa cells were cultured in complete growth medium (Dulbecco's modified Eagle's medium (DMEM) supplemented with 10% FBS); MCF7 cells were cultured in complete growth medium (Dulbecco's modified Eagle's medium (DMEM) supplemented with 10% FBS and 0.01 mg/ml human recombinant insulin (Sigma Aldrich); Namalwa and MOLM-13 cells were cultured in complete growth medium (RPMI 1640 medium supplemented with 10% FBS); MV-4-11 were cultured in complete growth medium (Iscove's Modified Dulbecco's medium, supplemented with 10% FBS); HCT116 cells were cultured in complete growth medium (McCoy's 5a Medium supplemented with 10% FBS). For cellular degradation of BRD4 studies, cells were seeded in a 12-well plate at 70-80% confluency, allowed to attach overnight, and incubated with the indicated compounds for the indicated time. When indicated, a 15-minute pretreatment with 10 μM pomalidomide, 10 μM VHL298, 10 μM Nutlin3a, 1 μM MG-132 or 1 μM Carfilzomib was performed before the addition of CURE-PROs. For washout studies, after CURE-PRO treatment, media was aspirated and incubated with complete medium for the indicated time before lysis.
Anti-BRD4 (13440, 1:1,000 dilution for Western Blot and 1:25 dilution for ProteinSimple); Anti-BRD2 (5848 1:1,000 dilution for Western Blot and 1:25 dilution for ProteinSimple); β-Actin (3700, 1:2,000 dilution for Western Blot), β-Actin (4970, 1:50 dilution for ProteinSimple) anti-mouse IgG-HRP, and anti-rabbit IgG-HRP antibodies were purchased Cell Signaling Technology. Anti-GAPDH (600-401-A33, 1:100 dilution for ProteinSimple) was purchased from Rockland Immunochemicals, Inc. Anti-BRD3 (sc-81202, 1:200 dilution for Western Blot) was purchased from Santa Cruz Biotechnology.
WES Simple analysis was performed on WES system (ProteinSimple-Biotechne) according to the manufacturer's instructions. Total protein concentrations of cell lysates were determined by the Pierce BCA kit (Thermo Fisher). 3 μL of 0.3 μg/μL of the protein lysate was loaded onto a 12- to 230-kDa WES assay plate (ProteinSimple) where 300 nL sample was withdrawn through a capillary, subjected to electrophoretic separation of proteins by size, and followed by the simultaneous, HRP-based detection of proteins using the Anti-Rabbit Detection Module (Proteinsimple: #DM-001). The electropherograms were checked then the automatic peak detection was manually corrected if it was required.
HeLa cells (2.5×10^6) were treated for 4-24 hours with the compounds solubilized in DMSO. After 4 hours, indicated points were washed and cells were left in full growth media. Compounds were added at 10 μM each. […]

Cc1sc2c(c1C)C(c1ccc(Cl)cc1)=N[C@@H](CC(=O)Nc1ccc(OCCOCCOCCOCCNc3cccc4c3C(=O)N(C3CCC(=O)NC3=O)C4=O)cc1)c1nnc(C)n1-2 (stereo partly shown) [ARV-825, reference compound]
Suppression of SLC19A1 expression, single compound (SLC19A1): Complete suppression of SLC19A1 was evident; also recorded: completely suppressed

COc1ccc2c(c1)C(c1ccc(Cl)cc1)=N[C@@H](CC(=O)NCCOCCOCCNC(=O)c1cccc(B(O)O)c1)c1nnc(C)n1-2 [BRD-E46]
Loss of cellular viability / toxicity, cotreated with cereblon ligands 8046, 8047 and 8066 vs monomers alone (MV-4-11 cells): reduced viability; also recorded: increased toxicity
Degradation of BRD4 in combination with CRBN ligand [drawing 372] (BRD4 [1]; Table 1, CRBN ligand, third drawing (8066)): ✓ (A black check mark indicates efficacy of 30% to 70% or higher protein degradation)
Degradation of BRD4 in combination with CRBN ligand [drawing 370] (BRD4 [1]; Table 1): ✓ (A black check mark indicates efficacy of 30% to 70% or higher protein degradation)
BRD4 degradation, co-treatment with CRBN ligand 8046 (BRD4 [2]; 24 h, Western blot): causes degradation of BRD4; also recorded: Degradation is noted
BRD4 degradation, co-treatment with CRBN ligand 8066 (BRD4 [2]; 24 h, 1:1 with 8066, 10 μM each (BRD-E10: 10 and 100 μM), Western blot): causes degradation of BRD4; also recorded: Degradation is noted

CCNC(=O)C[C@@H]1N=C(c2ccc(Sc3ccccc3)cc2)c2cc(OC)ccc2-n2c(C)nnc21 [BRD-E52C, N-ethyl-2-((4S)-8-methoxy-1-methyl-6-(4-(phenylthio)phenyl)-4H-benzo[f][1,2,4]triazolo[4,3-a][1,4]diazepin-4-yl)acetamide]
Concentration at which BRD4 degradation is induced, with 8047 (WES) (BRD4 [3]): > 10 µM

CCNC(=O)C[C@@H]1N=C(c2ccc(Cl)cc2)c2cc(Sc3cccc(B(O)O)c3)ccc2-n2c(C)nnc21 [BRD-E76]
Loss of cellular viability / toxicity, cotreated with cereblon ligands 8046, 8047 and 8066 vs monomers alone (MV-4-11 cells): reduced viability; also recorded: increased toxicity
Degradation of BRD4 in combination with CRBN ligand [drawing 370] (BRD4 [1]; Table 1): ✓ (A black check mark indicates efficacy of 30% to 70% or higher protein degradation)
BRD4 degradation, co-treatment with CRBN ligand 8046 (BRD4 [2]; 24 h, Western blot): causes degradation of BRD4
BRD4 degradation, co-treatment with CRBN ligand 8047 (BRD4 [2]; 24 h, 1:1 with 8047, 10 μM each, Western blot): causes degradation of BRD4

COc1ccc2c(c1)C(c1ccc(Cl)cc1)=N[C@@H](CC(=O)NCCc1ccc(O)c(O)c1)c1nnc(C)n1-2 [BRD-N10, (S)-2-(6-(4-chlorophenyl)-8-methoxy-1-methyl-4H-benzo[f][1,2,4]triazolo[4,3-a][1,4]diazepin-4-yl)-N-(3,4-dihydroxyphenethyl)acetamide]
Loss of cellular viability / toxicity, co-dosed with CRBN ligand 8049 (MV-4-11 cells; MV-4-11, 24 hours, 1:1 with 8049, 1 nM-100 μM each): concentration-dependent loss in cellular viability; also recorded: increased toxicity
Degradation of BRD4 in combination with CRBN ligand [drawing 407] (BRD4 [1]; Table 4, aryl-boronic acid-containing CRBN ligand, first drawing (by text: 8048)): ✓ (A black check mark indicates efficacy of 30% to 70% or higher protein degradation)
Degradation of BRD4 in combination with CRBN ligand [drawing 408] (BRD4 [1]; Table 4, aryl-boronic acid-containing CRBN ligand, second drawing (by text: 8049)): ✓ (A black check mark indicates efficacy of 30% to 70% or higher protein degradation)
Degradation of BRD4 in combination with MDM2 ligand [drawing 423] (BRD4 [1]; Table 5, aryl-boronic acid-containing MDM2 ligand, first drawing (8310)): ✓ (A black check mark indicates efficacy of 30% to 70% or higher protein degradation)
BRD4 degradation, co-treatment with CRBN ligand 8048 (BRD4 [2]; 24 h, 1:1 with 8048, 1-10 μM each, Western blot): causes degradation of BRD4; also recorded: capable of degrading BRD4
BRD4 degradation, BRD ligand alone (BRD4 [2]; 24 h, BRD monomer alone, Western blot): no degradation of BRD4

Nc1cccc2c1C(=O)N(C1CCC(=O)NC1=O)C2=O (stereo not shown) [pomalidomide, reference compound]
Suppression of SLC19A1 expression, single compound (SLC19A1): no suppression
Inhibition of CURE-PRO-mediated BRD4 degradation (BRD-E52 or BRD-E72 with 8047) by preincubation (BRD4 [2]; 15 min preincubation, equimolar (10 μM)): competitively inhibited; also recorded: inhibition of CURE-PRO-mediated BRD4 degradation
